Source: US20230373952A1, “LACTAM COMPOUNDS AS Kv1.3 POTASSIUM SHAKER CHANNEL BLOCKERS” (D.E. Shaw Research, LLC, priority 2020, published 2023)
Blank lines part the entries; values can stand above or below the compound they belong to.

Legend:
hERG channel = hERG channel (Homo sapiens, UniProt Q12809); experiment: cell-based
Description: This assay is used to evaluate the disclosed compounds' inhibition activities against the hERG channel.
CHO-K1 cells stably expressing hERG were grown in Ham's F-12 Medium with glutamine containing 10% heat-inactivated FBS, 1% penicillin/streptomycin, hygromycin (100 μg/ml) and G418 (100 μg/ml). Cells were grown in culture flasks at 37° C. in a 5% CO2-humidified incubator.
All compounds were dissolved in DMSO at 30 mM. Compound stock solutions were freshly diluted with external solution to concentrations of 30 nM, 100 nM, 300 nM, 1 μM, 3 μM, 10 μM, 30 μM and 100 μM. The highest content of DMSO (0.3%) was present in 100 μM.
The voltage protocol (see Table I) was designed to simulate voltage changes during a cardiac action potential with a 300 ms depolarization to +20 mV (analogous to the plateau phase of the cardiac action potential), a repolarization for 300 ms to −50 mV (inducing a tail current) and a final step to the holding potential of −80 mV. The pulse frequency was 0.3 Hz. Control (compound-free) and compound pulse trains for each compound concentration applied contained 70 pulses.
Whole-cell current recordings and compound application were enabled by means of an automated patch clamp platform Patchliner (Nanion). EPC 10 patch clamp amplifier (HEKA) along with Patchmaster software (HEKA Elektronik Dr. Schulze GmbH) was used for data acquisition. Data were sampled at 10 kHz without filtering. Increasing compound concentrations were applied consecutively to the same cell without washouts in between.
AUC and PEAK values were obtained with Patchmaster (HEKA Elektronik Dr. Schulze GmbH). To determine IC50 the last single pulse in the pulse train corresponding to a given compound concentration was used. Obtained AUC and PEAK values in the presence of compound were normalized to control values in the absence of compound.

Kv1.3 potassium channel = target: T1, Kv1.3 potassium channel (Homo sapiens, UniProt P22001); experiment: Kv1.3 potassium channel blocker activity, automated whole-cell patch clamp (Patchliner); assay type: cell-based; conditions: CHO-K1 cells stably expressing Kv1.3; whole-cell current inhibition, Hill fit; read-out: Kv1.3 IC50
T1 construct: expressed in transfected cells
Description: CHO-K1 cells stably expressing Kv1.3 were grown in DMEM containing 10% heat-inactivated FBS, 1 mM sodium pyruvate, 2 mM L-glutamine and G418 (500 μg/ml).
The currents were evoked by applying 100 ms depolarizing pulses from −90 mV (holding potential) to +40 mV were applied with 0.1 Hz frequency. […] 10-second breaks were used between pulse trains (see Table H below).
Passive leak currents were subtracted online using a P/4 procedure (HEKA Elektronik Dr. Schulze GmbH). […] Total compound incubation time before the next pulse train was not longer than 10 seconds. Peak current inhibition was observed during compound equilibration.

hERG channel, sequence (Q12809 whole entry): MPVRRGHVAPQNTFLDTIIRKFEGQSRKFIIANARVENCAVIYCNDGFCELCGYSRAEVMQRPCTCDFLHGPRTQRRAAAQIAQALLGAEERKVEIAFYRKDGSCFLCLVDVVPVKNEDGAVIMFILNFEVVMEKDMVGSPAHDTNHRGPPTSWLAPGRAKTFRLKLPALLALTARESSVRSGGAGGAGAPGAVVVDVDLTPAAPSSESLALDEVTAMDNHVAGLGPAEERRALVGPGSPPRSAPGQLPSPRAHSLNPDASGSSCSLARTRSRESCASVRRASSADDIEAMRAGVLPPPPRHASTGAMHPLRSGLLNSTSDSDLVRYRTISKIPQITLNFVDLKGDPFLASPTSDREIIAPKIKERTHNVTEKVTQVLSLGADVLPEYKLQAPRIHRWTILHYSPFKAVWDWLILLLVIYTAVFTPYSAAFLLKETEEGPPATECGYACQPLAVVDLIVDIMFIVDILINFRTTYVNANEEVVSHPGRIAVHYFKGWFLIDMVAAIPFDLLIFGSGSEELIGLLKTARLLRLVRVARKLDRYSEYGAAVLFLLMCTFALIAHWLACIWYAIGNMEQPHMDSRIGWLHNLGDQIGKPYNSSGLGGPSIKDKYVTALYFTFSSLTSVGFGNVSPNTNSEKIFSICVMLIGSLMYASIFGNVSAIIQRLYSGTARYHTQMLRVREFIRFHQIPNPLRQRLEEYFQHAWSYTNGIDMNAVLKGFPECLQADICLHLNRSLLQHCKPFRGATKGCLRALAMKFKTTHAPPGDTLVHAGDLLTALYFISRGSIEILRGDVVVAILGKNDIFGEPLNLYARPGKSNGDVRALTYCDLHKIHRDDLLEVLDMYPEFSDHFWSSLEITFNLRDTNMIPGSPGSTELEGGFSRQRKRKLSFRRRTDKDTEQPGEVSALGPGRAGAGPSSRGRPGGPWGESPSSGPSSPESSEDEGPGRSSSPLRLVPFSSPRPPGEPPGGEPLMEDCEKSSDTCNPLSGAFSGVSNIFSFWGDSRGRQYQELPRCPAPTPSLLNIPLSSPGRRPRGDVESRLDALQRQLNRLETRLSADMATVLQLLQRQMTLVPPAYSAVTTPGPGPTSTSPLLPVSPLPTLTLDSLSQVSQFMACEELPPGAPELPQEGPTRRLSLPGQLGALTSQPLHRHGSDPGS
T1 sequence (P22001 whole entry): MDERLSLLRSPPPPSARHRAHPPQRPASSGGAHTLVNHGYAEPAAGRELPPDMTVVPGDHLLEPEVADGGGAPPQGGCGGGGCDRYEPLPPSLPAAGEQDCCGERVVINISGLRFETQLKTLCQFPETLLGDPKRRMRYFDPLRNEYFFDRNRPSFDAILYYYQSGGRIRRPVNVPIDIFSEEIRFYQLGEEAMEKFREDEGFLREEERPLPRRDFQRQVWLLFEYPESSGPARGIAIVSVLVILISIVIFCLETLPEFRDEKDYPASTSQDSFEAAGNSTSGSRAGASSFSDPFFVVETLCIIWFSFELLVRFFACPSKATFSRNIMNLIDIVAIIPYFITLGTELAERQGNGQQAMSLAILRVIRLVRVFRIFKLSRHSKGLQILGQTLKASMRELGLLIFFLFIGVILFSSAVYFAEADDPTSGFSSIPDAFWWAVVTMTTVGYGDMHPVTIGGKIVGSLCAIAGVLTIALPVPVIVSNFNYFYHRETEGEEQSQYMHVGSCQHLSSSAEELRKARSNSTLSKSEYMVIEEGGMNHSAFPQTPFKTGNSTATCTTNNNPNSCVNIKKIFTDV

IC50 (Kv1.3 potassium channel): < 0.1 µM
Structure (SMILES): C[C@H]1[C@H](c2c(O)ccc(Cl)c2Cl)NC(=O)N1CCCO (relative stereo) [Compound 101, (4S,5S)-rel-4-(2,3-dichloro-6-hydroxyphenyl)-1-(3-hydroxypropyl)-5-methylimidazolidin-2-one]
IC50 (hERG channel): > 30 µM

IC50 (Kv1.3 potassium channel): < 0.1 µM
Structure (SMILES): O=C1CC(c2c(O)ccc(Cl)c2Cl)CCN1C1CCNC1 (single isomer, unassigned) [Compound 1, 4-(2,3-dichloro-6-hydroxyphenyl)-1-[pyrrolidin-3-yl]piperidin-2-one]
IC50 (hERG channel): > 30 µM

IC50 (Kv1.3 potassium channel): < 0.1 µM
Structure (SMILES): O=C1C[C@@H](c2c(O)ccc(Cl)c2Cl)CCN1[C@H]1CCNC1 (single isomer, unassigned) [Compound 2, 4-(2,3-dichloro-6-hydroxyphenyl)-1-[pyrrolidin-3-yl]piperidin-2-one]
IC50 (hERG channel): > 30 µM

IC50 (Kv1.3 potassium channel): < 0.1 µM
Structure (SMILES): O=C1CC[C@@H](c2c(O)ccc(Cl)c2Cl)CN1[C@@H]1CCNC1 (single isomer, unassigned) [Compound 5, 5-(2,3-dichloro-6-hydroxyphenyl)-1-[pyrrolidin-3-yl]piperidin-2-one]
IC50 (hERG channel): > 30 µM

IC50 (Kv1.3 potassium channel): < 1 µM
Structure (SMILES): O=C1N[C@@H](c2c(O)ccc(Cl)c2Cl)CCN1[C@@H]1CCNC1 (single isomer, unassigned) [Compound 9, 4-(2,3-dichloro-6-hydroxyphenyl)-1-[pyrrolidin-3-yl]-tetrahydropyrimidin-2(1H)-one]
IC50 (hERG channel): > 10 µM

IC50 (Kv1.3 potassium channel): < 1 µM
Structure (SMILES): O=C1N[C@H](c2c(O)ccc(Cl)c2Cl)CCN1[C@@H]1CCNC1 (single isomer, unassigned) [Compound 11, 4-(2,3-dichloro-6-hydroxyphenyl)-1-[pyrrolidin-3-yl]-tetrahydropyrimidin-2(1H)-one]
IC50 (hERG channel): > 10 µM

IC50 (Kv1.3 potassium channel): < 1 µM
Structure (SMILES): O=C1C[C@@H](c2c(O)ccc(Cl)c2Cl)CN1[C@H]1CCNC1 (single isomer, unassigned) [Compound 12, 4-(2,3-dichloro-6-hydroxyphenyl)-[1,3-bipyrrolidin]-2-one]
IC50 (hERG channel): > 30 µM

IC50 (Kv1.3 potassium channel): < 0.1 µM
Structure (SMILES): O=C1C[C@H](c2c(O)ccc(Cl)c2Cl)CN1[C@H]1CCNC1 (single isomer, unassigned) [Compound 15, 4-(2,3-dichloro-6-hydroxyphenyl)-[1,3-bipyrrolidin]-2-one]
IC50 (hERG channel): > 30 µM

IC50 (Kv1.3 potassium channel): < 0.1 µM
Structure (SMILES): O=C1C[C@@H](c2c(O)ccc(Cl)c2Cl)CN1[C@H]1C[C@H](CO)C1 (single isomer, unassigned; isomer 1) [Compound 25]
IC50 (hERG channel): > 30 µM

IC50 (Kv1.3 potassium channel): < 0.1 µM
Structure (SMILES): O=C1C[C@@H](c2c(O)ccc(Cl)c2Cl)CN1C[C@H]1C[C@H](O)C1 (single isomer, unassigned; isomer 1) [Compound 31]
IC50 (hERG channel): > 30 µM

IC50 (Kv1.3 potassium channel): < 1 µM
Structure (SMILES): CC(CO)N1C[C@H](c2c(O)ccc(Cl)c2Cl)CC1=O (single isomer, unassigned; isomer 1) [Compound 38]
IC50 (hERG channel): > 30 µM

IC50 (Kv1.3 potassium channel): < 0.1 µM
Structure (SMILES): NC[C@@H](O)CN1C[C@H](c2c(O)ccc(Cl)c2Cl)CC1=O (single isomer, unassigned; isomer 1) [Compound 51]
IC50 (hERG channel): > 100 µM

IC50 (Kv1.3 potassium channel): < 0.1 µM
Structure (SMILES): O=C1C[C@@H](c2c(O)ccc(Cl)c2Cl)CN1C[C@H]1C[C@@H](O)C1 (single isomer, unassigned; isomer 2) [Compound 32]
IC50 (hERG channel): > 30 µM

IC50 (Kv1.3 potassium channel): < 1 µM
Structure (SMILES): C[C@@H](CO)N1C[C@H](c2c(O)ccc(Cl)c2Cl)CC1=O (single isomer, unassigned; isomer 2) [Compound 39]
IC50 (hERG channel): > 100 µM

IC50 (Kv1.3 potassium channel): < 0.1 µM
Structure (SMILES): O=C1C[C@@H](c2c(O)ccc(Cl)c2Cl)CN1[C@H]1C[C@@](O)(CO)C1 (single isomer, unassigned; isomer 3) [Compound 70]
IC50 (hERG channel): > 100 µM

IC50 (Kv1.3 potassium channel): < 0.1 µM
Structure (SMILES): CC1[C@H](c2c(O)ccc(Cl)c2Cl)CC(=O)N1C[C@H](O)CO (stereo in doubt) [Compound 79, (4S,5S)-4-(2,3-dichloro-6-hydroxyphenyl)-1-[(2S)-2,3-dihydroxypropyl]-5-methylpyrrolidin-2-one]
IC50 (hERG channel): > 30 µM

IC50 (Kv1.3 potassium channel): < 0.1 µM
Structure (SMILES): CC1[C@H](c2c(O)ccc(Cl)c2Cl)CC(=O)N1CCO (stereo in doubt) [Compound 81, (4S,5S)-4-(2,3-dichloro-6-hydroxyphenyl)-1-(2-hydroxyethyl)-5-methylpyrrolidin-2-one]
IC50 (hERG channel): > 30 µM

IC50 (Kv1.3 potassium channel): < 1 µM
Structure (SMILES): O=C1C[C@@H](c2c(O)ccc(Cl)c2Cl)CN1C1CCOCC1 [Compound 17, (4S)-4-(2,3-dichloro-6-hydroxyphenyl)-1-(pyran-4-yl)pyrrolidin-2-one]
IC50 (hERG channel): > 30 µM

IC50 (Kv1.3 potassium channel): < 0.1 µM
Structure (SMILES): NCCN1C[C@H](c2c(O)ccc(Cl)c2Cl)CC1=O [Compound 21, (4S)-1-(2-aminoethyl)-4-(2,3-dichloro-6-hydroxyphenyl)pyrrolidin-2-one]
IC50 (hERG channel): > 100 µM

IC50 (Kv1.3 potassium channel): < 1 µM
Structure (SMILES): O=C1C[C@@H](c2cc(Cl)c(Cl)cc2O)CN1C1CNC1 [Compound 22, (4S)-1-(azetidin-3-yl)-4-(4,5-dichloro-2-hydroxyphenyl)pyrrolidin-2-one]
IC50 (hERG channel): > 100 µM

IC50 (Kv1.3 potassium channel): < 1 µM
Structure (SMILES): Cn1cc(CN2C[C@H](c3c(O)ccc(Cl)c3Cl)CC2=O)cn1 [Compound 23, (4S)-4-(2,3-dichloro-6-hydroxyphenyl)-1-[(1-methylpyrazol-4-yl)methyl]pyrrolidin-2-one]
IC50 (hERG channel): > 30 µM

IC50 (Kv1.3 potassium channel): < 0.1 µM
Structure (SMILES): O=C1C[C@@H](c2c(O)ccc(Cl)c2Cl)CN1C1COC1 [Compound 24, (S)-4-(2,3-dichloro-6-hydroxyphenyl)-1-(oxetan-3-yl)pyrrolidin-2-one]
IC50 (hERG channel): > 30 µM

Further lines, the compound ahead of its results:

Structure (SMILES): O=C1CC[C@H](c2c(O)ccc(Cl)c2Cl)CN1[C@H]1CCNC1 (single isomer, unassigned) [Compound 7, 5-(2,3-dichloro-6-hydroxyphenyl)-1-[pyrrolidin-3-yl]piperidin-2-one]
IC50 (hERG channel): > 30 µM
IC50 (Kv1.3 potassium channel): < 0.1 µM

Structure (SMILES): O=C1C[C@H](c2c(O)ccc(Cl)c2Cl)CN1[C@@H]1CCNC1 (single isomer, unassigned) [Compound 13, 4-(2,3-dichloro-6-hydroxyphenyl)-[1,3-bipyrrolidin]-2-one]
IC50 (hERG channel): > 10 µM
IC50 (Kv1.3 potassium channel): < 0.1 µM

Structure (SMILES): O=C1C[C@@H](c2c(O)ccc(Cl)c2Cl)CN1[C@@H]1CCNC1 (single isomer, unassigned) [Compound 14, 4-(2,3-dichloro-6-hydroxyphenyl)-[1,3-bipyrrolidin]-2-one]
IC50 (hERG channel): > 30 µM
IC50 (Kv1.3 potassium channel): < 1 µM

Structure (SMILES): O=C1O[C@H](c2c(O)ccc(Cl)c2Cl)CN1CCO (single isomer, unassigned; isomer 1) [Compound 93, 5-(2,3-dichloro-6-hydroxyphenyl)-3-(2-hydroxyethyl)oxazolidin-2-one isomer 1]
IC50 (hERG channel): > 100 µM
IC50 (Kv1.3 potassium channel): < 1 µM

Structure (SMILES): O=C1CO[C@H](c2c(O)ccc(Cl)c2Cl)CN1CCO (single isomer, unassigned; isomer 1) [Compound 95, 6-(2,3-dichloro-6-hydroxyphenyl)-4-(2-hydroxyethyl)morpholin-3-one isomer 1]
IC50 (hERG channel): > 100 µM
IC50 (Kv1.3 potassium channel): < 1 µM

Structure (SMILES): O=C1C[C@@H](c2c(O)ccc(Cl)c2Cl)CN1[C@H]1C[C@@H](CO)C1 (single isomer, unassigned; isomer 2) [Compound 26]
IC50 (hERG channel): > 30 µM
IC50 (Kv1.3 potassium channel): < 0.1 µM

Structure (SMILES): NCC(O)CN1C[C@H](c2c(O)ccc(Cl)c2Cl)CC1=O (single isomer, unassigned; isomer 2) [Compound 52]
IC50 (hERG channel): > 100 µM
IC50 (Kv1.3 potassium channel): < 0.1 µM

Structure (SMILES): O=C1O[C@@H](c2c(O)ccc(Cl)c2Cl)CN1CCO (single isomer, unassigned; isomer 2) [Compound 94, 5-(2,3-dichloro-6-hydroxyphenyl)-3-(2-hydroxyethyl)oxazolidin-2-one isomer 2]
IC50 (hERG channel): > 100 µM
IC50 (Kv1.3 potassium channel): < 1 µM

Structure (SMILES): O=C1C[C@@H](c2c(O)ccc(Cl)c2Cl)CN1[C@H]1C[C@](O)(CO)C1 (single isomer, unassigned; isomer 4) [Compound 71]
IC50 (hERG channel): > 100 µM
IC50 (Kv1.3 potassium channel): < 0.1 µM

Structure (SMILES): C[C@@H]1C(=O)N(C2CNC2)C[C@@H]1c1c(O)ccc(Cl)c1Cl (single isomer, unassigned; isomer 4) [Compound 90, 1-(azetidin-3-yl)-4-(2,3-dichloro-6-hydroxyphenyl)-3-methylpyrrolidin-2-one isomer 4]
IC50 (hERG channel): > 100 µM
IC50 (Kv1.3 potassium channel): < 1 µM

Structure (SMILES): CC1[C@@H](c2c(O)ccc(Cl)c2Cl)CC(=O)N1C1CNC1 (stereo in doubt) [Compound 76, (4R,5R)-1-(azetidin-3-yl)-4-(2,3-dichloro-6-hydroxyphenyl)-5-methylpyrrolidin-2-one]
IC50 (hERG channel): > 100 µM
IC50 (Kv1.3 potassium channel): < 1 µM

Structure (SMILES): CC1[C@H](c2c(O)ccc(Cl)c2Cl)CC(=O)N1C1CNC1 (stereo in doubt) [Compound 77, (4S,5S)-1-(azetidin-3-yl)-4-(2,3-dichloro-6-hydroxyphenyl)-5-methylpyrrolidin-2-one]
IC50 (hERG channel): > 30 µM
IC50 (Kv1.3 potassium channel): < 0.1 µM

Structure (SMILES): O=C1C[C@@H](c2c(O)ccc(Cl)c2Cl)CN1C1CN(CCO)C1 [Compound 16, (4S)-4-(2,3-dichloro-6-hydroxyphenyl)-1-[1-(2-hydroxyethyl)azetidin-3-yl]pyrrolidin-2-one]
IC50 (hERG channel): > 10 µM
IC50 (Kv1.3 potassium channel): < 0.1 µM

Structure (SMILES): O=C1C[C@@H](c2c(O)ccc(Cl)c2Cl)CN1C1CNC1 [Compound 19, (4S)-1-(azetidin-3-yl)-4-(2,3-dichloro-6-hydroxyphenyl)pyrrolidin-2-one]
IC50 (hERG channel): > 100 µM
IC50 (Kv1.3 potassium channel): < 0.1 µM

Structure (SMILES): O=C1C[C@@H](c2c(O)ccc(Cl)c2Cl)CN1CC1CNC1 [Compound 20, (4S)-1-(azetidin-3-ylmethyl)-4-(2,3-dichloro-6-hydroxyphenyl)pyrrolidin-2-one]
IC50 (hERG channel): > 100 µM
IC50 (Kv1.3 potassium channel): < 0.1 µM

Structure (SMILES): O=C1C[C@@H](c2c(O)ccc(Cl)c2Cl)CN1CCO [Compound 29, (4S)-4-(2,3-dichloro-6-hydroxyphenyl)-1-(2-hydroxyethyl)pyrrolidin-2-one]
IC50 (hERG channel): > 30 µM
IC50 (Kv1.3 potassium channel): < 0.1 µM
